Data reported in PMC8161026, “Synthesis and Anticancer Activity Evaluation of 5-[2-Chloro-3-(4-nitrophenyl)-2-propenylidene]-4-thiazolidinones” (Molecules, 2021).

Experiments:
TK-10 = test: NCI DTP 60 cell line screen, SRB
RPMI-8226 = RPMI-8226 (Leukemia), 48 h, SRB
KM12 = KM12 (Colon Cancer), 48 h, SRB
SN12C [1] = conditions: SN12C (Renal Cancer), 48 h, SRB
MOLT-4 [2] = test: cells; conditions: Homo sapiens, MOLT-4, 48 h
SK-MEL-28 [3] = conditions: SK-MEL-28 (Melanoma), 48 h, SRB
OVCAR-8 = test: NCI DTP 60 cell line screen, SRB
PC-3 [4] = conditions: PC-3 (Prostate Cancer), 48 h, SRB
SN12C [5] = test: cells; conditions: Homo sapiens, 48 h
OVCAR-3 = test: NCI DTP 60 cell line screen, SRB
EKVX = EKVX (Non-Small Cell Lung Cancer), 48 h, SRB
CCRF-CEM = test: NCI DTP 60 cell line screen, SRB; conditions: 48 h
HL-60(TB) = HL-60(TB) (Leukemia), 48 h, SRB
NCI-H226 = test: NCI DTP 60 cell line screen, SRB
LOX IMVI = LOX IMVI (Melanoma), 48 h, SRB
NCI-H460 [6] = test: cells; conditions: Homo sapiens, NCI-H460, 48 h
PC-3 [7] = test: cells; conditions: Homo sapiens, PC-3, 48 h
MOLT-4 [8] = conditions: MOLT-4 (Leukemia), 48 h, SRB
SK-MEL-2 [9] = conditions: SK-MEL-2 (Melanoma), 48 h, SRB
SK-MEL-28 [10] = test: cells; conditions: Homo sapiens, SK-MEL-28, 48 h
UACC-62 = test: NCI DTP 60 cell line screen, SRB
HOP-62 = test: cells; conditions: Homo sapiens, HOP-62, 48 h
SK-MEL-2 [11] = test: cells; conditions: Homo sapiens, SK-MEL-2, 48 h
HT-29 = test: NCI DTP 60 cell line screen, SRB
Colo 205 = test: NCI DTP 60 cell line screen, SRB
A498 = test: NCI DTP 60 cell line screen, SRB
UO-31 = test: NCI DTP 60 cell line screen, SRB
DU-145 [12] = test: cells; conditions: Homo sapiens, DU-145, 48 h
NCI-H460 [13] = conditions: NCI-H460 (Non-Small Cell Lung Cancer), 48 h, SRB
OVCAR-5 = test: NCI DTP 60 cell line screen, SRB
T-47D = T-47D (Breast Cancer), 48 h, SRB
DU-145 [14] = conditions: DU-145 (Prostate Cancer), 48 h, SRB
SNB-75 = SNB-75 (CNS Cancer), 48 h, SRB

O=C1NC(=S)S/C1=C\C(Cl)=C\c1ccc([N+](=O)[O-])cc1 [Compound 2b, 5-[(Z,2Z)-2-Chloro-3-(4-nitrophenyl)-2-propenylidene]-2-thioxo-4-thiazolidinone]
GI50 (TK-10; Homo sapiens, TK-10, 48 h): 10.6 µM
CC50 (TK-10; Homo sapiens, TK-10, 48 h, read-out: LC50): > 50 µM
TGI (TK-10; TK-10 (Renal Cancer), 48 h, SRB): 23.2 µM
TGI (RPMI-8226): 20.6 µM
TGI (KM12): 14.6 µM
TGI (SN12C [1]): 18.0 µM
GI50 (MOLT-4 [2]): 1.74 µM
CC50 (MOLT-4 [2]; read-out: LC50): > 50 µM
TGI (SK-MEL-28 [3]): 12.3 µM
GI50 (OVCAR-8; Homo sapiens, OVCAR-8, 48 h): 5.08 µM
CC50 (OVCAR-8; Homo sapiens, OVCAR-8, 48 h, read-out: LC50): 47.9 µM
TGI (OVCAR-8; OVCAR-8 (Ovarian Cancer), 48 h, SRB): 15.6 µM
TGI (PC-3 [4]): > 50 µM
GI50 (SN12C [5]): 4.11 µM
CC50 (SN12C [5]; read-out: LC50): > 50 µM
GI50 (OVCAR-3; Homo sapiens, OVCAR-3, 48 h): 1.65 µM
CC50 (OVCAR-3; Homo sapiens, OVCAR-3, 48 h, read-out: LC50): 26.6 µM
TGI (OVCAR-3; OVCAR-3 (Ovarian Cancer), 48 h, SRB): 8.08 µM
TGI (EKVX): > 50 µM
TGI (CCRF-CEM; CCRF-CEM (Leukemia), SRB): 21.5 µM
GI50 (CCRF-CEM; Homo sapiens, CCRF-CEM): 1.97 µM
CC50 (CCRF-CEM; Homo sapiens, CCRF-CEM, read-out: LC50): > 50 µM
TGI (HL-60(TB)): 14.4 µM
GI50 (NCI-H226; Homo sapiens, NCI-H226, 48 h): 6.28 µM
CC50 (NCI-H226; Homo sapiens, NCI-H226, 48 h, read-out: LC50): > 50 µM
TGI (NCI-H226; NCI-H226 (Non-Small Cell Lung Cancer), 48 h, SRB): 20.0 µM
TGI (LOX IMVI): 15.4 µM
GI50 (NCI-H460 [6]): 3.95 µM
CC50 (NCI-H460 [6]; read-out: LC50): > 50 µM
GI50 (PC-3 [7]): 4.68 µM
CC50 (PC-3 [7]; read-out: LC50): > 50 µM
TGI (MOLT-4 [8]): 14.2 µM
TGI (SK-MEL-2 [9]): 26.9 µM
GI50 (SK-MEL-28 [10]): 5.87 µM
CC50 (SK-MEL-28 [10]; read-out: LC50): 25.9 µM
GI50 (UACC-62; Homo sapiens, UACC-62, 48 h): 5.75 µM
CC50 (UACC-62; Homo sapiens, UACC-62, 48 h, read-out: LC50): 27.2 µM
TGI (UACC-62; UACC-62 (Melanoma), 48 h, SRB): 12.5 µM
GI50 (HOP-62): 15.4 µM
CC50 (HOP-62; read-out: LC50): > 50 µM
GI50 (SK-MEL-2 [11]): 8.07 µM
CC50 (SK-MEL-2 [11]; read-out: LC50): > 50 µM
TGI (HT-29; HT-29 (Colon Cancer), 48 h, SRB): 9.48 µM
GI50 (HT-29; Homo sapiens, HT-29, 48 h): 1.48 µM
CC50 (HT-29; Homo sapiens, HT-29, 48 h, read-out: LC50): > 50 µM
TGI (Colo 205; Colo 205 (Colon Cancer), 48 h, SRB): 17.4 µM
GI50 (Colo 205; Homo sapiens, COLO 205, 48 h): 4.04 µM
CC50 (Colo 205; Homo sapiens, COLO 205, 48 h, read-out: LC50): > 50 µM
TGI (A498; A498 (Renal Cancer), 48 h, SRB): 12.2 µM
GI50 (A498; Homo sapiens, A498, 48 h): 4.57 µM
CC50 (A498; Homo sapiens, A498, 48 h, read-out: LC50): 30.9 µM
GI50 (UO-31; Homo sapiens, UO-31, 48 h): 4.12 µM
CC50 (UO-31; Homo sapiens, UO-31, 48 h, read-out: LC50): > 50 µM
TGI (UO-31; UO-31 (Renal Cancer), 48 h, SRB): 21.8 µM
GI50 (DU-145 [12]): 7.09 µM
CC50 (DU-145 [12]; read-out: LC50): 28.4 µM
TGI (NCI-H460 [13]): 18.6 µM
GI50 (OVCAR-5; Homo sapiens, OVCAR-5, 48 h): 11.1 µM
CC50 (OVCAR-5; Homo sapiens, OVCAR-5, 48 h, read-out: LC50): 32.4 µM
TGI (OVCAR-5; OVCAR-5 (Ovarian Cancer), 48 h, SRB): 19.5 µM
TGI (T-47D): > 50 µM
TGI (DU-145 [14]): 14.2 µM
TGI (SNB-75): 23.5 µM
